Experimental data: publication PMC9696366, “Flavones, Flavonols, Lignans, and Caffeic Acid Derivatives from Dracocephalum moldavica and Their In Vitro Effects on Multiple Myeloma and Acute Myeloid Leukemia” (International Journal of Molecular Sciences, 2022)

How the values were obtained:
KMS-12-PE cells [1] = experiment: Apoptosis measurement (AnnexinV/PI staining) on myeloma cells; type: cell-based; details: for Cytotoxic effect / induction of apoptosis (in words): 12.5-50 µM; for viability at 12.5 µM / viability at 25 µM / viability at 50 µM / EC50: 48 h; for viability at 12.5 µM / viability at 25 µM / viability at 50 µM: read-out: % Alive (cells alive of control); for EC50: best-fit model
Method: (§1) Cytotoxicity was measured as induction of apoptosis in myeloma cell line KMS-12-PE and AML cell line Molm-13, staining the cells with AnnexinV-fluorescein isothiocyanate (AnnexinV-FITC) and propidium iodide (PI). Cell lines were purchased from DSMZ (Braunschweig, Germany) and routinely fingerprinted and tested for mycoplasma negativity. All cell lines were grown in RPMI-1640 medium (Life Technologies, Paisley, UK), and supplemented with 10% fetal calf serum (FCS; PAA, Linz, Austria), L-glutamine 100 µg/mL, and penicillin-streptomycin 100 U/mL. Compounds were dissolved in DMSO at a stock concentration of 50 mM and stored at −20 °C. Briefly, 0.5 × 10^6 cancer cells/mL were incubated for 24 h and 48 h with or without the tested compounds at indicated concentrations. Analyses were performed in duplicates and a solvent control was included. The extent of non-apoptotic cells (AnnexinV/propidium iodide negativity) was calculated as the percentage of viable cells in respect to the untreated control. Data are shown as the mean percentage of viable cells +/− standard deviation (SD) (error bars).

Molm-13 cells [2] = experiment: Proliferation, modified MTT assay (EZ4U) on AML cells; type: cell-based; details: 48 h; for inhibition at 2.5 µM: Homo sapiens
Method: (§2) Proliferation was measured using a modified MTT assay (EZ4U kit, Biomedica, Vienna, Austria) according to the manufacturer’s instructions. In brief, 2.5 × 10^4 (Molm-13)—5.0 × 10^4 cells (KMS-12-PE cells) were seeded in 96-well plates and substances were added as indicated. Different concentrations are due to the different doubling time of the cells (24 h vs. 48 h). Cells were incubated for 48 h and during the last 7 h of incubation, 3-(4,5-dimethylthiazol-2-yl)-2,5-diphenyltetrazolium bromide was added as a substrate. Reduction of the tetrazolium salt to formazan by the mitochondrial activity of the growing cells was measured as optical density at 492 nm (with 620 nm as reference) on a plate reader. Proliferation (mean +/− SD) was calculated as the percentage of control (without substances). Concentrations used were 10 µM/5 µM/2.5 µM for all substances. Gilteritinib was used as a positive control at 2.5 µM.

FLT3 = biological target: T1, FLT3 (Homo sapiens, UniProt P36888); experiment: FLT3 kinase assay (Z'-LYTE); type: biochemical; details: 6.25 nM (lowest concentration), 20 ng FLT3 protein
T1 construct: purchased Thermo Fisher Scientific Inc. (Waltham, MA, USA)
T1 sequence (P36888 27-993): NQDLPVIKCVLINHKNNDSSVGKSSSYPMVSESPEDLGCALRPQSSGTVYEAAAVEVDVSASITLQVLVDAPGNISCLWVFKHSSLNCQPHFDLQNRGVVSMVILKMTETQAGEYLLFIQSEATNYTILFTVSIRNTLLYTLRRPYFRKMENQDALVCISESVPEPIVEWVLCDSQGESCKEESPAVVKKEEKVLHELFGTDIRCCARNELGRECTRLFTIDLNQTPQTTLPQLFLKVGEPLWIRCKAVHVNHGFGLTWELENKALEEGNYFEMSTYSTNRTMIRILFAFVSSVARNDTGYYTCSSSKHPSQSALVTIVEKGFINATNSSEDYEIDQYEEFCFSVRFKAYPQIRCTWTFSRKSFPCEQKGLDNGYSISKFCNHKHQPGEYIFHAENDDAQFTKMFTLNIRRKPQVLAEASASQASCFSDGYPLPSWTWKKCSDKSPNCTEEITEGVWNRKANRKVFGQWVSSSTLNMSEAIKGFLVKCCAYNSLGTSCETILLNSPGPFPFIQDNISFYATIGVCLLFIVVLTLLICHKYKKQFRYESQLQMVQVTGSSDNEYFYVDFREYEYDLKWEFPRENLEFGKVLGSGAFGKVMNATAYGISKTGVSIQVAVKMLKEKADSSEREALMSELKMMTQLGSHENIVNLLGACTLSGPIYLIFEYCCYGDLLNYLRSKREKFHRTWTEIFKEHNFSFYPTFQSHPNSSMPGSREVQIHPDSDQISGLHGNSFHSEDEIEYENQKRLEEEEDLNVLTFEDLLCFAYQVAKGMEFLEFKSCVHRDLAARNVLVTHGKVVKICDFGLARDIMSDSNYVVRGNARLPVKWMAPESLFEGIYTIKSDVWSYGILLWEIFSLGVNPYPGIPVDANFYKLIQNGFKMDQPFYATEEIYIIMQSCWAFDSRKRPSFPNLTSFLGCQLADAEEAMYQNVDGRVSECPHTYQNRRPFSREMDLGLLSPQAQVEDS
Method: FLT3 inhibitory activity of compounds 1 and 3 was determined using the Z’-LYTE screening protocol. Z’-LYTE Kinase Assay—Tyrosine 2 Peptide Kit and FLT3 were purchased from Thermo Fisher Scientific Inc. (Waltham, MA, USA). The assay was performed according to the manufacturer’s instructions using a kinase buffer (50 mM HEPES pH 7.5, 0.01% BRIJ-35, 10 mM MgCl2, 1 mM EGTA) containing 0.01 to 20 ng of FLT3. Compounds were measured at concentrations of 50 nM/25 nM/12.5 nM/6.25 nM using gilteritinib as a positive control.

Molm-13 cells [3] = experiment: Apoptosis measurement (AnnexinV/PI staining) on AML cells; type: cell-based; details: for EC50: best-fit model; for viability at 12.5 µM: Molm-13, 12.5 µM; for viability at 12.5 µM / viability at 25 µM / viability at 50 µM: 48 h, read-out: % Alive (cells alive of control); for viability at 25 µM: Molm-13, 25 µM; for viability at 50 µM: Molm-13, 50 µM; for Cytotoxic effect / induction of apoptosis (in words): Molm-13, 12.5-50 µM
Method: as §1

KMS-12-PE cells [4] = experiment: Proliferation, modified MTT assay (EZ4U) on myeloma cells; type: cell-based; details: 10 to 2.5 µM (gilteritinib 2.5 µM), 48 h
Method: as §2

[5] = Molm-13, 2.5 µM, compared to untreated cells

Row | Compound | Cytotoxic effect / induction of apoptosis (in words) (KMS-12-PE cells [1]) | viability at 12.5 µM (KMS-12-PE cells [1]; Homo sapiens) [%] | viability at 25 µM (KMS-12-PE cells [1]; Homo sapiens) [%] | viability at 50 µM (KMS-12-PE cells [1]; Homo sapiens) [%] | EC50 (KMS-12-PE cells [1]; Homo sapiens) [µM] | inhibition at 2.5 µM (Molm-13 cells [2]; [5]) [%] | inhibition at 0.00625 µM (FLT3) [%] | EC50 (Molm-13 cells [3]; Homo sapiens, MOLM-13, 48 h) [µM] | viability at 12.5 µM (Molm-13 cells [3]; Homo sapiens) [%] | viability at 25 µM (Molm-13 cells [3]; Homo sapiens) [%] | viability at 50 µM (Molm-13 cells [3]; Homo sapiens) [%] | Cytotoxic effect / induction of apoptosis (in words) (Molm-13 cells [3]) | EC50 (Molm-13 cells [3]; Molm-13, 48 h) [µM] | Inhibition of proliferation (in words) (KMS-12-PE cells [4]) | Inhibition of proliferation (Molm-13 cells [2]; Molm-13, concentrations from 10 to 2.5 µM, compared to untreated cells) | EC50 (KMS-12-PE cells [1]) [µM] | Effect on proliferation (in words) (Molm-13 cells [2]; Molm-13, 2.5 µM, positive control)
1 | COc1cc2oc(-c3ccc(O)cc3)cc(=O)c2c(O)c1OC [Compound 1, cirsimaritin] | induced apoptosis | 86.8 ± 14.5 | 76.6 ± 25.6 | 58.9 ± 28.6 | > 50 | 72 | 81 | ~22 | 77.3 ± 9 | 48.4 ± 12 | 12.9 ± 4.1 | induced apoptosis | 21.7 | marginally |  |  | 
2 | COc1ccc(-c2cc(=O)c3c(O)c(OC)c(OC)cc3o2)cc1OC [Compound 2, 5-desmethylsinensetin] | no effects | 94.6 ± 10.2 | 93.4 ± 9.3 | 93.1 ± 10.2 | > 50 |  |  | > 50 | 91.1 ± 3.4 | 90.9 ± 0.4 | 88.6 ± 1.8 | no effects |  |  |  |  | 
3 | COc1c(OC)c(O)c2c(=O)cc(-c3ccc(O)cc3)oc2c1OC [Compound 3, xanthomicrol] |  | 69.5 ± 16 | 62.6 ± 13.1 | 55.4 ± 13.1 | 45.4 | 84 | 88 | ~28 | 56.4 ± 9.1 | 53.5 ± 1 | 47 ± 2.7 |  | 28 | marginally | up to 93% |  | 
4 | O=c1cc(-c2ccc(O)cc2)oc2cc(O)cc(O)c12 [Compound 4, apigenin] |  | 85.5 ± 10.6 | 69.4 ± 31.3 | 59.6 ± 16.1 | > 50 |  |  | > 50 | 98 ± 1.6 | 89.5 ± 3.9 | 58.4 ± 14.2 |  |  |  |  |  | 
5 | O=c1cc(-c2ccc(O)c(O)c2)oc2cc(O)cc(O)c12 [Compound 5, luteolin] |  | 80.3 ± 5.4 | 70.5 ± 5.6 | 50.3 ± 18.4 | > 50 |  |  | 42.3 | 86.5 ± 5.2 | 72.4 ± 4 | 30.2 ± 13.7 |  |  |  |  |  | 
6 | COc1ccc(-c2cc(=O)c3c(O)cc(O)cc3o2)cc1O [Compound 6, diosmetin] |  | 77.3 ± 6.9 | 44.2 ± 19 | 31.1 ± 5.3 | 26 |  |  | > 50 | 91.5 ± 2.8 | 76.2 ± 6.7 | 39.8 ± 5.8 |  |  |  |  | 25.7 | 
7 | O=c1c(O)c(-c2ccc(O)cc2)oc2cc(O)cc(O)c12 [Compound 7, kaempferol] | induced apoptosis | 98 ± 2.7 | 91.2 ± 15 | 76.3 ± 17.3 | > 50 |  |  | > 50 | 93.1 ± 5.1 | 83.1 ± 5.7 | 50.2 ± 11.4 | induced apoptosis |  |  |  |  | 
8 | O=c1c(O)c(-c2ccc(O)c(O)c2)oc2cc(O)cc(O)c12 [Compound 8, quercetin] | induced apoptosis | 96.6 ± 2.7 | 79 ± 4.8 | 43.7 ± 8.3 | > 50 |  |  | > 50 | 100 ± 2.2 | 94.4 ± 3.9 | 79.8 ± 10.2 | induced apoptosis |  |  |  |  | 
9 | COc1cc([C@H]2OC[C@H]3[C@@H]2CO[C@@H]3c2ccc3c(c2)OCO3)ccc1O [Compound 9, (+)-piperitol] |  | 102.8 ± 0.8 | 100.1 ± 0.8 | 97.1 ± 4.1 | > 50 |  |  | > 50 | 102 ± 1.3 | 100 ± 2.1 | 97.5 ± 2.4 |  |  |  |  |  | 
10 | O[C@@H]1O[C@H](c2ccc3c(c2)OCO3)[C@H]2CO[C@H](c3ccc4c(c3)OCO4)[C@H]21 [Compound 10, (+)-9α-hydroxysesamin] |  | 99 ± 0.6 | 96.7 ± 0.5 | 89.4 ± 0.8 | > 50 |  |  | > 50 | 101 ± 1.4 | 100 ± 2 | 98.7 ± 1.7 |  |  |  |  |  | 
11 | O=C(O)/C=C/c1ccc(O)c(O)c1 [Compound 11, caffeic acid] |  | 102 ± 1.8 | 102.5 ± 0.9 | 102.6 ± 0.5 | > 50 |  |  | > 50 | 96.9 ± 4.6 | 98.1 ± 3.8 | 98.8 ± 2.8 |  |  |  |  |  | 
12 | O=C(/C=C/c1ccc(O)c(O)c1)O[C@H](Cc1ccc(O)c(O)c1)C(=O)O [Compound 12, (R)-(+)-rosmarinic acid] |  | 100.2 ± 0.9 | 102 ± 1.5 | 98.2 ± 1.5 | > 50 |  |  | > 50 | 97.6 ± 3.2 | 98.5 ± 3.6 | 100.8 ± 0.6 |  |  |  |  |  | 
13 | COc1cc(/C=C/C(=O)O[C@H](Cc2ccc(O)c(O)c2)C(=O)O)ccc1O [Compound 13, (R)-(+)-3′-O-methylrosmarinic acid] |  | 102 ± 1.6 | 101 ± 1.8 | 101 ± 3.4 | > 50 |  |  | > 50 | 99.6 ± 2.6 | 99.4 ± 1.9 | 97.8 ± 4 |  |  |  |  |  | 
14 | CCc1nc(C(N)=O)c(Nc2ccc(N3CCC(N4CCN(C)CC4)CC3)c(OC)c2)nc1NC1CCOCC1 [gilteritinib, reference compound] |  |  |  |  |  |  |  |  |  |  |  |  |  |  |  |  | high effect
